Legend:
Test in all cases: KinomeScan profiling
Type in all cases: binding
[1] = biological target: FER (Homo sapiens, UniProt P16591); details: read-out: % control
In short: (§1)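 Compounds were screened at 1 μM in DMSO across a 468-kinase KinomeScan panel. Binding was expressed as % control, scaled between a positive control (0%) and DMSO (100%) using luminescence signal. A value under 35% counted as active.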

[2] = biological target: T1, MEK3 (Homo sapiens, UniProt P46734); details: MEK3, 1 μM; read-out: % control
T1 sequence (P46734 1-347): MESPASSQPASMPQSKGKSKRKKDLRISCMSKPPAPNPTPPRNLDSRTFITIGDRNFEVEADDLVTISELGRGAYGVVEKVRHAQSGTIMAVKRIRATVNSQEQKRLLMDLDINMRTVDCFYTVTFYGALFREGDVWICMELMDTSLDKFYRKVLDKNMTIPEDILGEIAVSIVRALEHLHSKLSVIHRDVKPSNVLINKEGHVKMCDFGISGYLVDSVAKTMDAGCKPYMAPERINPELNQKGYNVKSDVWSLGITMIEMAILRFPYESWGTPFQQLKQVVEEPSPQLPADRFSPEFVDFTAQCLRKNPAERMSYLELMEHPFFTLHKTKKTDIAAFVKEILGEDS
In short: as §1

[3] = biological target: RIPK2 (Homo sapiens, UniProt O43353); details: RIPK2, 1 μM; read-out: % control
In short: as §1

[4] = biological target: EGFR(G719C) (Homo sapiens, UniProt P00533, G719C); details: read-out: % control
EGFR(G719C), sequence (P00533 25-1210 G719C): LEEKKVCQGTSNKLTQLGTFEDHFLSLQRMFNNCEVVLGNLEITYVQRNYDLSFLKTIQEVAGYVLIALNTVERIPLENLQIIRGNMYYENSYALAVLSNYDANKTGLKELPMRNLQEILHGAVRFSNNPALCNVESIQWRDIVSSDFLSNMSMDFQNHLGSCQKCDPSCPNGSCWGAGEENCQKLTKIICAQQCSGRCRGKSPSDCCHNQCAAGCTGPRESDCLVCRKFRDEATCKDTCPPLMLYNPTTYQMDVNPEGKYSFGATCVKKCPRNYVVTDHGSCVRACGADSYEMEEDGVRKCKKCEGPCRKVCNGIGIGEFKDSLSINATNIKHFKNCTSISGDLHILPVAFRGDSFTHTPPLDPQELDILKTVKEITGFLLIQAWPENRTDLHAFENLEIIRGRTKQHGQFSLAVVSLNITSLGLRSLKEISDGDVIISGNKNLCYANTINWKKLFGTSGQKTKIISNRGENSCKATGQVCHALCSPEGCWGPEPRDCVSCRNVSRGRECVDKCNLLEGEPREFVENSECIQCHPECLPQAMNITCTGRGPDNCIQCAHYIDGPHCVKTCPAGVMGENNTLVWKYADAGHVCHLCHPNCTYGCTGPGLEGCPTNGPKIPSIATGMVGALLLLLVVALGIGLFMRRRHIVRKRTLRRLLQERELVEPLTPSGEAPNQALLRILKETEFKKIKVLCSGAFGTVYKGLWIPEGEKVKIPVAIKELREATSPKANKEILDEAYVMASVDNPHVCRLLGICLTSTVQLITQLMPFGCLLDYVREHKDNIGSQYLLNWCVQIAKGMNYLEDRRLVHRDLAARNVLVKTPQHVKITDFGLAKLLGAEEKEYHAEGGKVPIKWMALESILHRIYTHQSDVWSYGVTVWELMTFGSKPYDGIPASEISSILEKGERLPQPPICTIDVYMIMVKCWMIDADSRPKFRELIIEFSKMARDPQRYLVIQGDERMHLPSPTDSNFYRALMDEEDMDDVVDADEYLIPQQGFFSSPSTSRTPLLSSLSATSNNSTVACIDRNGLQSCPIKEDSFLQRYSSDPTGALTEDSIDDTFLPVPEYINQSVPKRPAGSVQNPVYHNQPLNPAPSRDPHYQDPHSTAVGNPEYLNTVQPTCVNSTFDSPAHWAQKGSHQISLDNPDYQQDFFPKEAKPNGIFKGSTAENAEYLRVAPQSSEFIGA
In short: as §1

[5] = biological target: T2, IRAK4 (Homo sapiens, UniProt Q9NWZ3); details: IRAK4, 1 μM; read-out: % control
T2 construct: purchased KinomeScan®
T2 sequence (Q9NWZ3 1-460): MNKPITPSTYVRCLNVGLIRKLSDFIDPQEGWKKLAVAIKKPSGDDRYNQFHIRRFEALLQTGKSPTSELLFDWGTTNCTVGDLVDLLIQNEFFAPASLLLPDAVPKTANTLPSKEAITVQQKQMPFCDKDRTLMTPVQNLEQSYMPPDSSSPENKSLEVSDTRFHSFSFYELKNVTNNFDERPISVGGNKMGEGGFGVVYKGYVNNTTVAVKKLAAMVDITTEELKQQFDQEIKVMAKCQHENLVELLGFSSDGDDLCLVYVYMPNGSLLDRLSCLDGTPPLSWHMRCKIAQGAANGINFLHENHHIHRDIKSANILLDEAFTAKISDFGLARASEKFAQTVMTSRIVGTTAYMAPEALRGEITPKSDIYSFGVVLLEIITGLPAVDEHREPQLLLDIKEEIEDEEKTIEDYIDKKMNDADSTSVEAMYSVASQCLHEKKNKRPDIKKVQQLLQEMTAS
In short: as §1

[6] = biological target: DAPK2 (Homo sapiens, UniProt Q9UIK4); details: DAPK2, 1 μM; read-out: % control
DAPK2, sequence (Q9UIK4 whole entry): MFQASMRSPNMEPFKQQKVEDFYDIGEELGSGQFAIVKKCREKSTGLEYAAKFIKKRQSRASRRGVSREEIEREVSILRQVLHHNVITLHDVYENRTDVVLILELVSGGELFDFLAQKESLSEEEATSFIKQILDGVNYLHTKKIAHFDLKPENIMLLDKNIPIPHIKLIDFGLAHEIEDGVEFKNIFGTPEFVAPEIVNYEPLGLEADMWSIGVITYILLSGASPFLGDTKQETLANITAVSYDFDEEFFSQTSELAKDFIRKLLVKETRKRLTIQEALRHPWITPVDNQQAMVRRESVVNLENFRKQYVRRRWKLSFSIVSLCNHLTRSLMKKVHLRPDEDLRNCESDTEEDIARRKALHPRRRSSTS
In short: as §1

[7] = biological target: T3, PKAC-beta (Homo sapiens, UniProt P22694); details: read-out: % control
T3 construct: purchased KinomeScan® (panel service)
In short: as §1

[8] = biological target: DAPK3 (Homo sapiens, UniProt O43293); details: DAPK3, 1 μM; read-out: % control
DAPK3, sequence (O43293 whole entry): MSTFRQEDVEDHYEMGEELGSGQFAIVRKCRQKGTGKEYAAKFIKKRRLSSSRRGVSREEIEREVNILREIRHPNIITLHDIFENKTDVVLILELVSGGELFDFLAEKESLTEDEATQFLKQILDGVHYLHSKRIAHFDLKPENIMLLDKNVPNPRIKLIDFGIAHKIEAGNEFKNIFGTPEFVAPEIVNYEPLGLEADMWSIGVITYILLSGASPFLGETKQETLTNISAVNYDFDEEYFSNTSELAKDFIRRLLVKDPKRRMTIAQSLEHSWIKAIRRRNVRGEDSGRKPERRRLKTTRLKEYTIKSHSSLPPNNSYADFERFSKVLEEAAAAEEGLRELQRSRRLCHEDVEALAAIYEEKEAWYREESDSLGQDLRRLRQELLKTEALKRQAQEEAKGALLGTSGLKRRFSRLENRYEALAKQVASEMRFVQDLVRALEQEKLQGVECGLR
In short: as §1

[9] = biological target: DMPK2 (Homo sapiens, UniProt Q6DT37); details: DMPK2, 1 μM; read-out: % control
DMPK2, sequence (Q6DT37 whole entry): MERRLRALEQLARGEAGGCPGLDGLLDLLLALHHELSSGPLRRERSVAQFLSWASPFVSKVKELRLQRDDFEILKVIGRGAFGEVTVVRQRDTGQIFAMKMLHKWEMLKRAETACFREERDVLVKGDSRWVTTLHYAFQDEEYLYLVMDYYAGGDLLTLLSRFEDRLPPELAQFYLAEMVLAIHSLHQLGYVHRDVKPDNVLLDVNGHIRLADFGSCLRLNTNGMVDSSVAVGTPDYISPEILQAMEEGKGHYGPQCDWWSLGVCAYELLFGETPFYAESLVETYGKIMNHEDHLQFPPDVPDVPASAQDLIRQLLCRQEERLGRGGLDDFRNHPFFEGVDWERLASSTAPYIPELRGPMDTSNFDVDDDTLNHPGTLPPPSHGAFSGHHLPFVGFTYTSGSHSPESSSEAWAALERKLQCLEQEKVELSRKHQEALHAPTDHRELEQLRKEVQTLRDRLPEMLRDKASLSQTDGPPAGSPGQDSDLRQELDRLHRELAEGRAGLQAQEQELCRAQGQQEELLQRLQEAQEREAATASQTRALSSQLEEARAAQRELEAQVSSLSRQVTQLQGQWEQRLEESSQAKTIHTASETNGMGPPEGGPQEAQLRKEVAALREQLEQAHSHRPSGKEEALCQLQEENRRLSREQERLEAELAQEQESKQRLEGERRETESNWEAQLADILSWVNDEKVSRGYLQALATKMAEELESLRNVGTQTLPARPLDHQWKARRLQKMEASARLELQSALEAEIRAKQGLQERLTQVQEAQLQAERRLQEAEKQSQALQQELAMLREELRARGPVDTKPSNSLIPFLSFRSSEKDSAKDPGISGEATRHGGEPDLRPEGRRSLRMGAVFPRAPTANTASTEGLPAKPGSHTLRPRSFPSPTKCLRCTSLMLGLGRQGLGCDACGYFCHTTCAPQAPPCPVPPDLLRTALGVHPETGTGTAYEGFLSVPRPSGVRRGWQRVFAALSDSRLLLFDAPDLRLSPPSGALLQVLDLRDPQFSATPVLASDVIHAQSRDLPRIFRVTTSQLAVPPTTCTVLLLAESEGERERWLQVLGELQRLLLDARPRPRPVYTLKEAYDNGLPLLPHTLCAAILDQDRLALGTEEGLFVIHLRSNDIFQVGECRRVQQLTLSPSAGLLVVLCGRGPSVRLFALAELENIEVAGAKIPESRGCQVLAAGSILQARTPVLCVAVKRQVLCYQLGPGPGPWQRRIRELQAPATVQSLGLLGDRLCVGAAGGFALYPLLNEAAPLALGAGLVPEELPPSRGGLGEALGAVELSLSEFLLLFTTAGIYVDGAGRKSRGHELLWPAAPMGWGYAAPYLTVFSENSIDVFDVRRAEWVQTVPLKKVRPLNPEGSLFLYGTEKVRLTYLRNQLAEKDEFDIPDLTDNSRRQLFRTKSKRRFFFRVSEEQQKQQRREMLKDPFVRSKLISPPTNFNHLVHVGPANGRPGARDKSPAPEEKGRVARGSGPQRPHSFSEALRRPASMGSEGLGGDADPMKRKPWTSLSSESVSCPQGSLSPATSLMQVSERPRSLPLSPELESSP
In short: as §1

[10] = biological target: CDK3 (Homo sapiens, UniProt Q00526); details: CDK3, 1 μM; read-out: % control
CDK3, sequence (Q00526 whole entry): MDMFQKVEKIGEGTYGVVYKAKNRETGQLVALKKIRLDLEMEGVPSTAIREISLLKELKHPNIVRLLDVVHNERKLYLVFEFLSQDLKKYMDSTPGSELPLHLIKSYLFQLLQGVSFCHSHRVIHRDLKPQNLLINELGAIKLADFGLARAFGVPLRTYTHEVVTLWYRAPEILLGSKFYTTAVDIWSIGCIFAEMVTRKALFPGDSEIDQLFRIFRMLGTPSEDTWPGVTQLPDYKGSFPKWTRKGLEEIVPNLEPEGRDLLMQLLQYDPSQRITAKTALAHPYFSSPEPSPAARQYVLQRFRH
In short: as §1

[11] = biological target: T4, PRKCE (Homo sapiens, UniProt Q02156); details: read-out: % control
T4 sequence (Q02156 1-737): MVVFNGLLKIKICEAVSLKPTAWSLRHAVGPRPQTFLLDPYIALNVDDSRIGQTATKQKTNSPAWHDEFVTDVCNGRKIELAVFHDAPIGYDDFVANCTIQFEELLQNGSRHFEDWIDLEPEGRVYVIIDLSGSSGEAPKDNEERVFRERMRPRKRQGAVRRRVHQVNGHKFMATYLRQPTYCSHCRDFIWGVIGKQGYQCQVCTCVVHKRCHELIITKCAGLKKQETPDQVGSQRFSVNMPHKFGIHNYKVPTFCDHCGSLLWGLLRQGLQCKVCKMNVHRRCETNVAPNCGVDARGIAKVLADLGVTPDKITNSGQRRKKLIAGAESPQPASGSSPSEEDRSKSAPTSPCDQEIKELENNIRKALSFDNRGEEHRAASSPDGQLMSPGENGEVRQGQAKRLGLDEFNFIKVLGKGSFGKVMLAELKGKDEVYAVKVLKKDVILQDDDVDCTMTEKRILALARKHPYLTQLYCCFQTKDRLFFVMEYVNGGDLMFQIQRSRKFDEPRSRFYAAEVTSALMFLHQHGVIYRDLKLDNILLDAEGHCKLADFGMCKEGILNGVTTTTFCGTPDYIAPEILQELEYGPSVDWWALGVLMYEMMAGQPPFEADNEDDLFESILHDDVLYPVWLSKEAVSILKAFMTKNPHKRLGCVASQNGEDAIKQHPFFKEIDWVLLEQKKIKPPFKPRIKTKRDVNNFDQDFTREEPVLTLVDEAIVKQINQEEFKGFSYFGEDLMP
In short: as §1

[12] = biological target: CDK5 (Homo sapiens, UniProt Q00535); details: CDK5, 1 μM; read-out: % control
CDK5, sequence (Q00535 whole entry): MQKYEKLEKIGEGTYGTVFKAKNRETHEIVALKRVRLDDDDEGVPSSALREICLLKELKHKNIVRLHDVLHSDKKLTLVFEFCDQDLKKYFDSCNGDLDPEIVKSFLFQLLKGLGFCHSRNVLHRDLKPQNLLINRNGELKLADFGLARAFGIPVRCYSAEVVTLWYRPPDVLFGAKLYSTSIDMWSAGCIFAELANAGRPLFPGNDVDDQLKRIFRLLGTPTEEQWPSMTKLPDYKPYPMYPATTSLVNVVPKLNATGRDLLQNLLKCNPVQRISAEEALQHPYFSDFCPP
In short: as §1

FER, sequence (P16591 whole entry): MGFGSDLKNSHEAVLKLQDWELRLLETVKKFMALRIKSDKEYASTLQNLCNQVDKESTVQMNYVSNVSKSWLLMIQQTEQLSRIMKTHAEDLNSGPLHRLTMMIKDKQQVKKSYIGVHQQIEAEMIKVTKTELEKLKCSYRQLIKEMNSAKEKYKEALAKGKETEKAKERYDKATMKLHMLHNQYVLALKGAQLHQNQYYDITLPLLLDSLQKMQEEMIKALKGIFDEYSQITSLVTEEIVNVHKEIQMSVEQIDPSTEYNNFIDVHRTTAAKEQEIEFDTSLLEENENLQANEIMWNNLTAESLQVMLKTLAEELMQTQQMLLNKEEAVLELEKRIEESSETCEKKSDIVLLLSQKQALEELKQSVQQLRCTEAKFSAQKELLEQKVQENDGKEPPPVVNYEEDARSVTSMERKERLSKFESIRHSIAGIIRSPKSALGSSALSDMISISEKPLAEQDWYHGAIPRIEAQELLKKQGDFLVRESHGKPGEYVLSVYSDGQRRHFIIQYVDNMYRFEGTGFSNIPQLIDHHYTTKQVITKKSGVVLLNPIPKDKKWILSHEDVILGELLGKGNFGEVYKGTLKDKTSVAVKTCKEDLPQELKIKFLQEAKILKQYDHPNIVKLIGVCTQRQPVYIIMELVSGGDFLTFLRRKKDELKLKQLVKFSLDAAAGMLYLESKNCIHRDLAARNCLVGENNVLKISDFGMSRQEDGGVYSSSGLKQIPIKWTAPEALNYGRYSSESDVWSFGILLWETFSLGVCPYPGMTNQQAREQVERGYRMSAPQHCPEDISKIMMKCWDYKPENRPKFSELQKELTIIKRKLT

SMILES: CNc1c(-c2cnn([C@H]3CCN(C(C)=O)C[C@@H]3F)c2)cnc2[nH]cc(Cl)c12 [Compound 77, 1-((3S,4S)-4-(4-(3-chloro-4-(methylamino)-1H-pyrrolo[2,3-b]pyridin-5-yl)-1H-pyrazol-1-yl)-3-fluoropiperidin-1-yl)ethan-1-one]
- remaining binding at 1 µM [1]: 100%
- remaining binding at 1 µM [2]: 36%
- remaining binding at 1 µM [3]: 100%
- remaining binding at 1 µM [4]: 91%
- remaining binding at 1 µM [5]: 26%
- remaining binding at 1 µM [6]: 72%
- remaining binding at 1 µM [7]: 100%
- remaining binding at 1 µM [8]: 79%
- remaining binding at 1 µM [9]: 80%
- remaining binding at 1 µM [10]: 95%
- remaining binding at 1 µM [11]: 51%
- remaining binding at 1 µM [12]: 91%

SMILES: O=C(c1ccc(-c2cnc3[nH]cc(Cl)c3c2NC2CCCC2)cc1)N1CCC(N2CCOCC2)CC1 [Compound 101, (4-(3-chloro-4-(cyclopentylamino)-1H-pyrrolo[2,3-b]pyridin-5-yl)phenyl)(4-morpholinopiperidin-1-yl)methanone]
- remaining binding at 1 µM [1]: 100%
- remaining binding at 1 µM [2]: 33%
- remaining binding at 1 µM [3]: 100%
- remaining binding at 1 µM [4]: 91%
- remaining binding at 1 µM [5]: 100%
- remaining binding at 1 µM [6]: 100%
- remaining binding at 1 µM [7]: 90%
- remaining binding at 1 µM [8]: 88%
- remaining binding at 1 µM [9]: 100%
- remaining binding at 1 µM [10]: 97%
- remaining binding at 1 µM [11]: 70%
- remaining binding at 1 µM [12]: 94%

SMILES: CNc1c(-c2ccc(C(=O)N3CCC(N4CCOCC4)CC3)cc2)cnc2[nH]cc(Cl)c12 [Compound 96, (4-(3-chloro-4-(methylamino)-1H-pyrrolo[2,3-b]pyridin-5-yl)phenyl)(4-morpholinopiperidin-1-yl)methanone]
- remaining binding at 1 µM [1]: 100%
- remaining binding at 1 µM [2]: 4.2%
- remaining binding at 1 µM [3]: 99%
- remaining binding at 1 µM [4]: 100%
- remaining binding at 1 µM [5]: 62%
- remaining binding at 1 µM [6]: 82%
- remaining binding at 1 µM [7]: 100%
- remaining binding at 1 µM [8]: 96%
- remaining binding at 1 µM [9]: 91%
- remaining binding at 1 µM [10]: 89%
- remaining binding at 1 µM [11]: 66%
- remaining binding at 1 µM [12]: 97%

Reference: patent US12275731B2, “Azaindole inhibitors of wild-type and mutant forms of LRRK2” (DANA-FARBER CANCER INSTITUTE, INC., priority 2018, dated 2025)
